{"source": "PubChem BioAssay AID328", "about": "(DTP/NCI, 2004)", "tested_on": "BDF1 mice, P388 leukemia ip, median survival T/C", "assay": "NCI In Vivo Anticancer Drug Screen. Data for tumor model P388 Leukemia (intraperitoneal) in B6D2F1 (BDF1) mice", "details": "endpoint: median survival time, higher = longer survival", "in_short": "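Steps: implant the tumour, treat one group with compound and another with vehicle, record survival, then divide treated by control.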", "key": {"[1]": {"details": "dose: 50.0 mg/kg/injection, schedule: Q01DX009 (ip), vehicle: saline with Tween-80"}, "[2]": {"details": "dose: 100.0 mg/kg/injection, schedule: Q01DX009 (ip), vehicle: saline with Tween-80"}, "[3]": {"details": "dose: 200.0 mg/kg/injection, schedule: Q01DX009 (ip), vehicle: saline with Tween-80"}}, "note": "Values joined by “and” are separate entries in the source; they are usually repeats but may differ in a detail not shown here. Equal values may be shown once. Inconclusive results and toxic doses are left out.", "data": [{"compound": "CN(C)P(=S)(N(C)C)N1CCC1", "values": [{"measurement": "T/C", "setting": "[1]", "value": "96 % of control"}, {"measurement": "T/C", "setting": "[2]", "value": "90 % of control"}, {"measurement": "T/C", "setting": "[3]", "value": "109 % of control"}]}, {"compound": "CC/C(=C(/CC)c1ccc(O)cc1)c1ccc(O)cc1", "values": [{"measurement": "T/C", "setting": "dose: 12.5 mg/kg/injection, schedule: Q01DX009 (ip), vehicle: carboxymethylcellulose (CMC)", "value": "105 % of control"}, {"measurement": "T/C", "setting": "dose: 12.5 mg/kg/injection, schedule: Q01DX010 (ip), vehicle: saline", "value": "100 % of control and 110 % of control"}, {"measurement": "T/C", "setting": "dose: 25.0 mg/kg/injection, schedule: Q01DX009 (ip), vehicle: carboxymethylcellulose (CMC)", "value": "89 % of control and 93 % of control"}, {"measurement": "T/C", "setting": "dose: 25.0 mg/kg/injection, schedule: Q01DX010 (ip), vehicle: saline", "value": "110 % of control"}, {"measurement": "T/C", "setting": "dose: 50.0 mg/kg/injection, schedule: Q01DX008 (ip), vehicle: saline with Tween-80", "value": "114 % of control and 120 % of control"}, {"measurement": "T/C", "setting": "dose: 50.0 mg/kg/injection, schedule: Q01DX009 (ip), vehicle: carboxymethylcellulose (CMC)", "value": "97 % of control"}, {"measurement": "T/C", "setting": "dose: 50.0 mg/kg/injection, schedule: Q01DX010 (ip), vehicle: saline", "value": "100 % of control and 115 % of control"}, {"measurement": "T/C", "setting": "dose: 100.0 mg/kg/injection, schedule: Q01DX008 (ip), vehicle: saline with Tween-80", "value": "110 % of control and 116 % of control"}, {"measurement": "T/C", "setting": "dose: 100.0 mg/kg/injection, schedule: Q01DX009 (ip), vehicle: carboxymethylcellulose (CMC)", "value": "88 % of control and 90 % of control"}, {"measurement": "T/C", "setting": "dose: 100.0 mg/kg/injection, schedule: Q01DX010 (ip), vehicle: saline", "value": "90 % of control and 95 % of control"}, {"measurement": "T/C", "setting": "dose: 200.0 mg/kg/injection, schedule: Q01DX008 (ip), vehicle: saline with Tween-80", "value": "111 % of control and 112 % of control"}, {"measurement": "T/C", "setting": "dose: 200.0 mg/kg/injection, schedule: Q01DX009 (ip), vehicle: carboxymethylcellulose (CMC)", "value": "114 % of control"}, {"measurement": "T/C", "setting": "dose: 400.0 mg/kg/injection, schedule: Q01DX008 (ip), vehicle: saline with Tween-80", "value": "112 % of control"}]}, {"compound": "O=C1/C(=C/c2ccccc2)Cc2cccc(O)c21", "values": [{"measurement": "T/C", "setting": "dose: 37.5 mg/kg/injection, schedule: Q01DX001 (ip), vehicle: saline with Tween-80", "value": "100 % of control"}, {"measurement": "T/C", "setting": "dose: 75.0 mg/kg/injection, schedule: Q01DX001 (ip), vehicle: saline with Tween-80", "value": "100 % of control"}, {"measurement": "T/C", "setting": "dose: 150.0 mg/kg/injection, schedule: Q01DX001 (ip), vehicle: saline with Tween-80", "value": "100 % of control"}]}, {"compound": "Cc1cc(=O)n(Cc2ccccc2)c(O)c1C", "values": [{"measurement": "T/C", "setting": "dose: 100.0 mg/kg/injection, schedule: Q04DX003 (ip), vehicle: Klucel (hydroxypropylcellulose) (HPC)", "value": "102 % of control"}, {"measurement": "T/C", "setting": "dose: 200.0 mg/kg/injection, schedule: Q04DX003 (ip), vehicle: Klucel (hydroxypropylcellulose) (HPC)", "value": "94 % of control"}]}, {"compound": "O=C1Nc2ccccc2C12Nc1cccnc1N2", "note": "(centres undefined)", "values": [{"measurement": "T/C", "setting": "dose: 50.0 mg/kg/injection, schedule: Q01DX001 (ip), vehicle: saline with Tween-80", "value": "91 % of control"}, {"measurement": "T/C", "setting": "dose: 100.0 mg/kg/injection, schedule: Q01DX001 (ip), vehicle: saline with Tween-80", "value": "87 % of control"}, {"measurement": "T/C", "setting": "dose: 200.0 mg/kg/injection, schedule: Q01DX001 (ip), vehicle: saline with Tween-80", "value": "91 % of control"}]}, {"compound": "COC(=O)c1ccccc1NC(=O)CCl", "values": [{"measurement": "T/C", "setting": "dose: 50.0 mg/kg/injection, schedule: Q04DX003 (ip), vehicle: saline with Tween-80", "value": "100 % of control"}, {"measurement": "T/C", "setting": "dose: 100.0 mg/kg/injection, schedule: Q04DX003 (ip), vehicle: saline with Tween-80", "value": "87 % of control"}]}, {"compound": "COc1ccc(C(=O)/C=N/O)cc1", "values": [{"measurement": "T/C", "setting": "dose: 25.0 mg/kg/injection, schedule: Q01DX009 (ip), vehicle: saline with Tween-80", "value": "86 % of control"}, {"measurement": "T/C", "setting": "[1]", "value": "100 % of control"}, {"measurement": "T/C", "setting": "[2]", "value": "90 % of control"}]}, {"compound": "C[n+]1c2ccccc2nc2c(N)cc(N)cc21", "values": [{"measurement": "T/C", "setting": "dose: 4.8 mg/kg/injection, schedule: Q01DX009 (ip), vehicle: saline with Tween-80", "value": "115 % of control"}, {"measurement": "T/C", "setting": "dose: 7.3 mg/kg/injection, schedule: Q01DX009 (ip), vehicle: saline with Tween-80", "value": "115 % of control"}, {"measurement": "T/C", "setting": "dose: 26.0 mg/kg/injection, schedule: Q01DX009 (ip), vehicle: saline with Tween-80", "value": "154 % of control"}, {"measurement": "T/C", "setting": "dose: 41.0 mg/kg/injection, schedule: Q01DX009 (ip), vehicle: saline with Tween-80", "value": "154 % of control"}, {"measurement": "T/C", "setting": "dose: 41.0 mg/kg/injection, schedule: Q01DX009 (ip), vehicle: water", "value": "185 % of control"}]}, {"compound": "COC(=O)C1(C)CCCC2(C)C1CCC13OCC(CC21)C(=C(C)C)C3OC(C)=O", "note": "(centres undefined)", "values": [{"measurement": "T/C", "setting": "[2]", "value": "100 % of control"}, {"measurement": "T/C", "setting": "[3]", "value": "100 % of control"}, {"measurement": "T/C", "setting": "dose: 400.0 mg/kg/injection, schedule: Q01DX009 (ip), vehicle: saline with Tween-80", "value": "90 % of control"}]}, {"compound": "Cc1cc(O)c2c(c1)C(=O)C(c1c(C)cc3c(c1O)C(=O)C=CC3=O)=CC2=O", "values": [{"measurement": "T/C", "setting": "dose: 1.25 mg/kg/injection, schedule: Q01DX009 (ip), vehicle: saline", "value": "89 % of control"}, {"measurement": "T/C", "setting": "dose: 2.5 mg/kg/injection, schedule: Q01DX009 (ip), vehicle: saline", "value": "114 % of control"}, {"measurement": "T/C", "setting": "dose: 5.0 mg/kg/injection, schedule: Q01DX009 (ip), vehicle: saline", "value": "102 % of control"}, {"measurement": "T/C", "setting": "dose: 10.0 mg/kg/injection, schedule: Q01DX009 (ip), vehicle: saline", "value": "105 % of control and 116 % of control"}, {"measurement": "T/C", "setting": "dose: 14.0 mg/kg/injection, schedule: Q01DX009 (ip), vehicle: saline", "value": "106 % of control"}, {"measurement": "T/C", "setting": "dose: 22.0 mg/kg/injection, schedule: Q01DX009 (ip), vehicle: saline", "value": "116 % of control"}, {"measurement": "T/C", "setting": "dose: 35.0 mg/kg/injection, schedule: Q01DX009 (ip), vehicle: saline", "value": "99 % of control"}]}]}
